# Key:
# [1] = biological target: T1, human Werner helicase (WRN, Uniprot Q14191, amino acids 517-1235 with L1074F point mutation; WRN-BV08) (Homo sapiens, UniProt Q14191, L1074F); test: WRN (BV08) ADP-Glo assay; format: biochemical; conditions: WRN-BV08 (aa 517-1235, L1074F); read-out: ADP-Glo_hWRN_IC50
# T1 construct: Uniprot Q14191, amino acids 517-1235 with L1074F point mutation; 8xHis (C, cleaved yes); TEV cleavage site (ENLYFQG) (C, cleaved yes); made in house; host or cells: Sf9 insect cells (baculovirus, pFastBac)
# In short: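 ADP formed by untagged WRN helicase fragment (aa 517-1235, L1074F; 0.15 nM final) on 0.1 nM DNA duplex with […], 60 min at 25 °C after 15 min compound preincubation, pH 7.5 Bicine buffer. Luminescent ADP-Glo readout; IC50 from 4-parameter fit of % inhibition.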
# [2] = test system: p21 induction in HCT 116 cells; test: p21 induction in cells (In-Cell Western, p21/GAPDH ratio); format: cell-based; conditions: Homo sapiens, HCT-116, 24 h, 24 h compound incubation, read-out: P21_EC50
# In short: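 p21 and GAPDH signals quantified by In-Cell Western after 24 h compound exposure of HCT 116 cells (11 concentrations, 2-fold steps, usual top 10 μM). Percent activation from p21/GAPDH ratio relative to DMSO (low) and internal WRN inhibitor (high) controls; curve fit gave EC50.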
# T1 sequence (Q14191 with tags, fused parts or gaps L1074F): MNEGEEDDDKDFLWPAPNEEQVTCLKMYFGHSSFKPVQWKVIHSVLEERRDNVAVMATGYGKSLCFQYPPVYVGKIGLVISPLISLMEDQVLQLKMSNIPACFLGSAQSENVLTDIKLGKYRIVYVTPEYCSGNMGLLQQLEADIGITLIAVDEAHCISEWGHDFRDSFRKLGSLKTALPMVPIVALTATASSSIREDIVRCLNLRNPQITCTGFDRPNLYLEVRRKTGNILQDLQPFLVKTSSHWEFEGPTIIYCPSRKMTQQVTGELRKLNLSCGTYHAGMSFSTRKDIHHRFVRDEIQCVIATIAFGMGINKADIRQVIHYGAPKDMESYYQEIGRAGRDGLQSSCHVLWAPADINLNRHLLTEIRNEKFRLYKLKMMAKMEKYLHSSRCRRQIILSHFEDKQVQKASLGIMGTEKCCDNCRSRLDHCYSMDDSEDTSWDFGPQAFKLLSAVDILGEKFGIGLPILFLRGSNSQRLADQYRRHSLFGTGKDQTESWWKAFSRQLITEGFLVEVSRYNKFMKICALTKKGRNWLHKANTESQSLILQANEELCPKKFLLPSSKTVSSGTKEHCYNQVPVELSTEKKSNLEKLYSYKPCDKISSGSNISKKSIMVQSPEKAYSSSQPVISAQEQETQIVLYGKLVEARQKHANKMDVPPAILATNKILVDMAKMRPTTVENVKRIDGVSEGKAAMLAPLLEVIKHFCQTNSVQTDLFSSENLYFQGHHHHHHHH
IC50 [1] [nM],EC50 [2] [nM],SMILES
100 to 500,> 5000,"CCc1c(N2CCN(C(=O)c3ncnc(C)c3O)[C@H]3CC[C@@H]32)c(=O)c2nc(N(C)C)cnc2n1CC(=O)NC12CC(C(F)(F)F)(C1)C2 (relative stereo) [I-2, rel-2-(2-(dimethylamino)-6-ethyl-7-((1S,6S)-5-(5-hydroxy-6-methylpyrimidine-4-carbonyl)-2,5-diazabicyclo[4.2.0]octan-2-yl)-8-oxopyrido[2,3-b]pyrazin-5(8H)-yl)-N-(3-(trifluoromethyl)bicyclo[1.1.1]pentan-1-yl)acetamide]"
5 to 50,≤ 500,"CCc1c(N2CCN(C(=O)c3ncnc(C)c3O)[C@H]3CC[C@@H]32)c(=O)n2nc(C3=CCOCC3)nc2n1CC(=O)NC12CC(C(C)C)(C1)C2 [I-222, 2-(2-(3,6-dihydro-2H-pyran-4-yl)-5-ethyl-6-((1S,6S)-5-(5-hydroxy-6-methylpyrimidine-4-carbonyl)-2,5-diazabicyclo[4.2.0]octan-2-yl)-7-oxo-[1,2,4]triazolo[1,5-a]pyrimidin-4(7H)-yl)-N-(3-isopropylbicyclo[1.1.1]pentan-1-yl)acetamide]"
5 to 50,≤ 500,"CCc1c(N2CCN(C(=O)c3ncnc(C)c3O)[C@H]3CC[C@@H]32)c(=O)c2cn(-c3ccnc(OC)c3)nc2n1CC(=O)NC12CC(C3CC3)(C1)C2 [I-212, N-(3-cyclopropylbicyclo[1.1.1]pentan-1-yl)-2-(6-ethyl-5-((1S,6S)-5-(5-hydroxy-6-methylpyrimidine-4-carbonyl)-2,5-diazabicyclo[4.2.0]octan-2-yl)-2-(2-methoxypyridin-4-yl)-4-oxo-2,4-dihydro-7H-pyrazolo[3,4-b]pyridin-7-yl)acetamide]"
5 to 50,≤ 500,"CCc1c(N2CCN(C(=O)c3c(OC)ncc(C)c3O)CC2)c(=O)n2nc(-c3ccnc(C)c3)nc2n1CC(=O)NC12CC(C(C)C)(C1)C2 [I-217, 2-(5-ethyl-6-(4-(4-hydroxy-2-methoxy-5-methylnicotinoyl)piperazin-1-yl)-2-(2-methylpyridin-4-yl)-7-oxo-[1,2,4]triazolo[1,5-a]pyrimidin-4(7H)-yl)-N-(3-isopropylbicyclo[1.1.1]pentan-1-yl)acetamide]"
5 to 50,500 to 2000,"CCc1c(N2CCN(C(=O)c3c(O)ccc4ncoc34)CC2)c(=O)n2nc(-c3ccnc(OC)c3)nc2n1CC(=O)NC12C3C4C1C1C2C3C41C(F)(F)F (stereo not drawn) [I-220, 2-(5-ethyl-6-(4-(6-hydroxybenzo[d]oxazole-7-carbonyl)piperazin-1-yl)-2-(2-methoxypyridin-4-yl)-7-oxo-[1,2,4]triazolo[1,5-a]pyrimidin-4(7H)-yl)-N-(4-(trifluoromethyl)cuban-1-yl)acetamide]"
5 to 50,2000 to 5000,"CCc1c(N2CCN(C(=O)c3c(O)ccc4ncoc34)CC2)c(=O)n2nc(-c3ccnc(OC)c3)nc2n1CC(=O)NC12CCC(C(F)(F)F)(CC1)CC2 [I-45, 2-(5-ethyl-6-(4-(6-hydroxybenzo[d]oxazole-7-carbonyl)piperazin-1-yl)-2-(2-methoxypyridin-4-yl)-7-oxo-[1,2,4]triazolo[1,5-a]pyrimidin-4(7H)-yl)-N-(4-(trifluoromethyl)bicyclo[2.2.2]octan-1-yl)acetamide]"
5 to 50,500 to 2000,"CCc1c(N2CCN(C(=O)c3c(O)ccc4ncoc34)CC2)c(=O)n2nc(-c3ccnc(OC)c3)nc2n1CC(=O)NC12CC(CCF)(C1)C2 [I-31, 2-(5-ethyl-6-(4-(6-hydroxybenzo[d]oxazole-7-carbonyl)piperazin-1-yl)-2-(2-methoxypyridin-4-yl)-7-oxo-[1,2,4]triazolo[1,5-a]pyrimidin-4(7H)-yl)-N-(3-(2-fluoroethyl)bicyclo[1.1.1]pentan-1-yl)acetamide]"
5 to 50,2000 to 5000,"CCc1c(N2CCN(C(=O)c3ncc4c(c3O)CCO4)CC2)c(=O)n2nc(C3=CCN(C(=O)COC)CC3)nc2n1CC(=O)NC12CC(C(F)(F)F)(C1)C2 [I-21, 2-(5-ethyl-6-(4-(4-hydroxy-2,3-dihydrofuro[2,3-c]pyridine-5-carbonyl)piperazin-1-yl)-2-(1-(2-methoxyacetyl)-1,2,3,6-tetrahydropyridin-4-yl)-7-oxo-[1,2,4]triazolo[1,5-a]pyrimidin-4(7H)-yl)-N-(3-(trifluoromethyl)bicyclo[1.1.1]pentan-1-yl)acetamide]"
5 to 50,500 to 2000,"CCc1c(N2CCN(C(=O)c3ncc4c(c3O)CCO4)CC2)c(=O)n2nc(C3=CCOCC3)nc2n1CC(=O)NC12CC(C3CCC3)(C1)C2 [I-211, N-(3-cyclobutylbicyclo[1.1.1]pentan-1-yl)-2-(2-(3,6-dihydro-2H-pyran-4-yl)-5-ethyl-6-(4-(4-hydroxy-2,3-dihydrofuro[2,3-c]pyridine-5-carbonyl)piperazin-1-yl)-7-oxo-[1,2,4]triazolo[1,5-a]pyrimidin-4(7H)-yl)acetamide]"
5 to 50,> 5000,"CCc1c(N2CCN(C(=O)c3ccccc3C(=O)O)[C@H]3CC[C@@H]32)c(=O)c2nn(-c3ccnc(OC)c3)nc2n1CC(=O)NC12CC(C(C)C)(C1)C2 [I-207, 2-((1S,6S)-5-(5-ethyl-4-(2-((3-isopropylbicyclo[1.1.1]pentan-1-yl)amino)-2-oxoethyl)-2-(2-methoxypyridin-4-yl)-7-oxo-4,7-dihydro-2H-[1,2,3]triazolo[4,5-b]pyridin-6-yl)-2,5-diazabicyclo[4.2.0]octane-2-carbonyl)benzoic acid]"
5 to 50,≤ 500,"CCc1c(N2CCN(C(=O)c3c(O)ccc4ncoc34)CC2)c(=O)n2nc(-c3ccnc(OC)c3)nc2n1CC(=O)NC12CC(CC)(C1)C2 [I-23, 2-(5-ethyl-6-(4-(6-hydroxybenzo[d]oxazole-7-carbonyl)piperazin-1-yl)-2-(2-methoxypyridin-4-yl)-7-oxo-[1,2,4]triazolo[1,5-a]pyrimidin-4(7H)-yl)-N-(3-ethylbicyclo[1.1.1]pentan-1-yl)acetamide]"
100 to 500,> 5000,"CCc1c(N2CCN(C(=O)c3cnn(C)c3)CC2)c(=O)n2nc(-c3ccnc(OC)c3)nc2n1CC(=O)NC1Cc2ccc(F)cc2C1 (stereo not drawn) [I-246, 2-(5-ethyl-2-(2-methoxypyridin-4-yl)-6-(4-(1-methyl-1H-pyrazole-4-carbonyl)piperazin-1-yl)-7-oxo-[1,2,4]triazolo[1,5-a]pyrimidin-4(7H)-yl)-N-(5-fluoro-2,3-dihydro-1H-inden-2-yl)acetamide]"
50 to 100,> 5000,"CCc1c(N2CCN(C(=O)c3c(OC)ncc(C)c3O)CC2)c(=O)c2nc(N(C)C)cnc2n1CC(=O)NC12CC(C(F)(F)F)(C1)C2 [I-240, 2-(2-(dimethylamino)-6-ethyl-7-(4-(4-hydroxy-2-methoxy-5-methylnicotinoyl)piperazin-1-yl)-8-oxopyrido[2,3-b]pyrazin-5(8H)-yl)-N-(3-(trifluoromethyl)bicyclo[1.1.1]pentan-1-yl)acetamide]"
5 to 50,500 to 2000,"CCc1c(N2CCN(C(=O)c3ncnc(C)c3O)C(C)(C)C2)c(=O)c2nn(-c3ccnc(OC)c3)nc2n1CC(=O)NC12CC(C3CC3)(C1)C2 [I-228, N-(3-cyclopropylbicyclo[1.1.1]pentan-1-yl)-2-(5-ethyl-6-(4-(5-hydroxy-6-methylpyrimidine-4-carbonyl)-3,3-dimethylpiperazin-1-yl)-2-(2-methoxypyridin-4-yl)-7-oxo-2,7-dihydro-4H-[1,2,3]triazolo[4,5-b]pyridin-4-yl)acetamide]"
5 to 50,500 to 2000,"CCc1c(N2CCN(C(=O)c3cccc4ncoc34)[C@H]3CC[C@@H]32)c(=O)n2nc(C3=CCOCC3)nc2n1CC(=O)NC12CC(C(C)C)(C1)C2 [I-214, 2-(6-((1S,6S)-5-(benzo[d]oxazole-7-carbonyl)-2,5-diazabicyclo[4.2.0]octan-2-yl)-2-(3,6-dihydro-2H-pyran-4-yl)-5-ethyl-7-oxo-[1,2,4]triazolo[1,5-a]pyrimidin-4(7H)-yl)-N-(3-isopropylbicyclo[1.1.1]pentan-1-yl)acetamide]"
5 to 50,500 to 2000,"CCc1c(N2CCN(C(=O)c3c(OC)ncc(C)c3O)[C@H]3CC[C@@H]32)c(=O)c2nc(N(C)C)cnc2n1CC(=O)NC12CC(C3CC3)(C1)C2 [I-233, N-(3-cyclopropylbicyclo[1.1.1]pentan-1-yl)-2-(2-(dimethylamino)-6-ethyl-7-((1S,6S)-5-(4-hydroxy-2-methoxy-5-methylnicotinoyl)-2,5-diazabicyclo[4.2.0]octan-2-yl)-8-oxopyrido[2,3-b]pyrazin-5(8H)-yl)acetamide]"
5 to 50,500 to 2000,"CCc1c(N2CCN(C(=O)c3c(O)ccc4ncoc34)[C@H]3CC[C@@H]32)c(=O)c2nc(N(C)C)cnc2n1CC(=O)NC12CC(C(C)C)(C1)C2 [I-218, 2-(2-(dimethylamino)-6-ethyl-7-((1S,6S)-5-(6-hydroxybenzo[d]oxazole-7-carbonyl)-2,5-diazabicyclo[4.2.0]octan-2-yl)-8-oxopyrido[2,3-b]pyrazin-5(8H)-yl)-N-(3-isopropylbicyclo[1.1.1]pentan-1-yl)acetamide]"
50 to 100,> 5000,"CCc1c(N2CCN(C(=O)c3ncnc(C)c3O)[C@H]3CC[C@@H]32)c(=O)c2nc(N(C)C)cnc2n1CC(=O)NC1CC2(CC(C)C2)C1 (stereo partly drawn) [I-238, 2-(2-(dimethylamino)-6-ethyl-7-((1S,6S)-5-(5-hydroxy-6-methylpyrimidine-4-carbonyl)-2,5-diazabicyclo[4.2.0]octan-2-yl)-8-oxopyrido[2,3-b]pyrazin-5(8H)-yl)-N-(6-methylspiro[3.3]heptan-2-yl)acetamide]"

# Reference: patent publication US20250206738A1, “WRN INHIBITORS” (Nimbus Wadjet, Inc., priority 2023, published 2025)
